The text below walks through data of patent EP2881391A1, “Spiroindoline carbocycle derivatives and pharmaceutical compositions thereof” (Bayer Pharma Aktiengesellschaft, priority 2013, dated 2015).

In general, IC50 refers to the point on the concentration scale where inhibition reaches its midpoint.

This experiment has as its target T1, human GnRH receptor (Homo sapiens, UniProt P30968).
T1 construct: line established by Prof; Thomas Gudermann; host or cells: CHO cells
T1 sequence (P30968 1-328): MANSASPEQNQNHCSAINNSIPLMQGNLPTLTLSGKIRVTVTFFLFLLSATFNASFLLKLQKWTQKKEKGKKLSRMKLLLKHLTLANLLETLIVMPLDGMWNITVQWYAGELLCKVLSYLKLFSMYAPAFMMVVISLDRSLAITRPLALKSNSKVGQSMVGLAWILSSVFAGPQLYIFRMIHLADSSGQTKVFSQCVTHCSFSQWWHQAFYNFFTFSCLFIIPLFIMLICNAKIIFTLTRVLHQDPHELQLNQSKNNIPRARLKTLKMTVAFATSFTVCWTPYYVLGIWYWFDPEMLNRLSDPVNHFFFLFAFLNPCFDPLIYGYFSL
In words: IP-One HTRF assay (inhibition of GnRH-R activation by buserelin). The class given is cell-based. The settings on record: IP-One HTRF assay with buserelin (at EC80) stimulation; CHO cells stably expressing human GnRH receptor; tested 20 µM to 1 nM; read-out: Potency IC50. The text has this: By using homogenous time-resolved fluorescence resonance energy transfer (HTRF), the generation of one component of the GnRH-R signalling cascade can be measured. After stimulation of CHO cells stably expressing human GnRH receptor (established by Prof. Thomas Gudermann, currently University of Marburg, Germany; supplied as frozen cell aliquots by Cell Culture Services, Hamburg, Germany) with the EC80 of the GnRH agonist buserelin, Gq protein-coupled receptor signalling cascade is activated resulting in PLC-dependent cleavage of PIP2 to Inositol-1,4,5-triphosphate (IP3) and Diacylglycerol. The second messenger IP3 is degraded intracellularly to myo-inositol. Inhibition of the final degradation step from Inositol-1-phosphate (IP1) to myo-inositol by addition of lithium chloride leads to accumulation of IP1 in the cells. In cell lysates, IP1 can be detected via an antibody-based HTRF detection technology, where IP1 can displace the FRET acceptor IP1-d2 from binding by Terbium-labelled anti-IP1 antibody as donor resulting in a signal decrease. Compounds were tested for their capability of inhibiting GnRH-R activation by buserelin. For all IP-One HTRF® assays reagents of Cisbio Bioassays (IP-One Tb Jumbo kit, #62IPAPEJ; Cisbio Bioassays, Bagnols sur Cèze Cedex, France) were used.
For the assay, frozen cell aliquots were thawed and a cell suspension (3.33x10^6 cells/ml) containing IP1-d2 (dilution 1:40) was prepared and incubated at 37°C. After 1 h 3 µl of the cell suspension were added to 50 nl of a 100-fold concentrated solution of the test compound in DMSO pre-dispensed in a well of a white low-volume 384-well microtiter plate (Greiner Bio-One, Frickenhausen, Germany). The mixture was incubated for 20 min at 22°C to allow for pre-binding of the test compound to the GnRH-R. The receptor signaling cascade was stimulated by addition of 2 µl buserelin or LHRH (at EC50 or EC80) in stimulation buffer (10 mM Hepes pH 7.4, 1 mM CaCl2, 0.5 mM MgCl2, 4.2 mM KCI, 146 mM NaCl, 5.5 mM α-D-Glucose, 0.05% BSA, 125 mM LiCl (final assay concentration 50 mM) in aqua dest.). Plates were incubated for 1 h at 37°C and 5% carbon dioxide before the cells were lysed by adding 3 µl Terbium-labelled anti-IP1 antibody (1:40) diluted in Conjugate & Lysis buffer as supplied with the kit. After an incubation for 1 h at 22°C to enable complete cell lysis and antibody binding to free IP1 or IP1-d2, plates were measured in an HTRF reader, e.g. a RUBYstar, PHERAstar (both BMG Labtechnologies, Offenburg, Germany) or a Viewlux (PerkinElmer LAS, Rodgau-Jügesheim, Germany). From the fluorescence emissions at 665 nm (FRET) and at 620 nm (background signal of Terbium-antibody), the ratio (emission at 665 nm divided by emission at 620 nm) was calculated and the data were normalized (reaction without test compound = 0% inhibition; all other assay components except agonist = 100% inhibition). On the same microtiter plate, compounds were tested at 10 different concentrations in the range of 20 µM to 1 nM (20 µM, 6.7 µM, 2.2 µM, 0.74 µM, 0.25 µM, 82 nM, 27 nM, 9.2 nM, 3.1 nM and 1 nM; dilution series prepared before the assay at the level of the 100-fold conc. stock solutions by serial 1:3 dilutions in 100% DMSO) in duplicate values for each concentration. By using an in-house software, the IC50 values were calculated by a 4 parameter fit. The data reveal that the compounds of the present invention have antagonist activities on the human GnRH receptor. Within the meaning of the present invention the antagonist activity is reflected by the ability of a compound of the invention to antagonize human GnRH receptor stimulation in IP-One HTRF® assay at least three times the standard deviation over the background level.
On the technique in general: TR-FRET usually uses a lanthanide donor and a delayed reading to cut background.
As for `O=C(Nc1ccon1)c1ccc2c(c1)C1(CCC(O)(C(F)(F)F)CC1)C(C1CC1)N2S(=O)(=O)c1ccc(F)cc1` (single isomer, unassigned) [Example 56-2], the IC50 came out at 17400 nM.

As for `COC(=O)c1cccc(S(=O)(=O)N2c3ccc(C(=O)Nc4ccon4)cc3C3(CCC(O)(C(F)(F)F)CC3)C2C2CC2)c1` (stereo not drawn) [Example 27, methyl 3-{[2'-cyclopropyl-4-hydroxy-5'-(1,2-oxazol-3-ylcarbamoyl)-4-(trifluoromethyl)spiro[cyclohexane-1,3'-indol]-1'(2'H)-yl]sulfonyl}benzoate], the IC50 amounted to 1120 nM.

Consider `O=C1CCC2(CC1)c1cc(C(=O)NCc3ccccc3Cl)ccc1N(S(=O)(=O)c1ccc(F)cc1)C2C1CC1` (single isomer, unassigned) [Example 3-2], for which the IC50 worked out at 1020 nM.

For the compound `O=C(NCc1ccccc1Cl)c1ccc2c(c1)C1(CCC(F)(F)CC1)C(C1CC1)N2S(=O)(=O)c1ccc(F)cc1` (stereo not drawn) [Example 6, N-(2-chlorobenzyl)-2'-cyclopropyl-4,4-difluoro-1'-[(4-fluorophenyl)sulfonyl]-1',2'-dihydrospiro[cyclohexane-1,3'-indole]-5'-carboxamide], the half-inhibitory concentration (IC50) amounted to 489 nM.

Consider `COc1cccc(S(=O)(=O)N2c3ccc(C(=O)NCc4ncccc4Cl)cc3C3(CCC(O)(C(F)(F)F)CC3)C2C2CC2)c1` (stereo not drawn) [Example 45, N-[(3-chloropyridin-2-yl)methyl]-2'-cyclopropyl-4-hydroxy-1'-[(3-methoxyphenyl)su Ifonyl]-4-(trifluoromethyl)-1',2'-dihydrospiro[cyclohexane-1,3'-indole]-5'-carboxamide], for which the IC50 was found to be 756 nM.

On to `CC(C)=CCC1N(S(=O)(=O)c2ccc(F)cc2)c2ccc(C(=O)Nc3cccc(S(N)(=O)=O)c3)cc2C12CCC(O)(C(F)(F)F)CC2` (stereo not drawn) [Example 16, 1'-[(4-fluorophenyl)sulfonyl]-4-hydroxy-2'-(3-methylbut-2-en-1-yl)-N-(3-sulfamoylphenyl)-4-(trifluoromethyl)-1',2'-dihydrospiro[cyclohexane-1,3'-indole]-5'-carboxamide], for which the IC50 was determined as 1850 nM.

With `O=C(O)c1cccc(S(=O)(=O)N2c3ccc(C(=O)NCc4ccccc4Cl)cc3C3(CCCCC3)C2C2CC2)c1` (stereo not drawn) [Example 10, 3-({5'-[(2-chlorobenzyl)carbamoyl]-2'-cyclopropylspiro[cyclohexane-1,3'-indol]-1'(2'H)-yl}sulfonyl)benzoic acid], the IC50 is 805 nM.

Regarding `CC1N(S(=O)(=O)c2ccc(F)cc2)c2ccc(C(=O)NCc3ccccc3Cl)cc2C12CCC(O)(C(F)(F)F)CC2` (stereo not drawn) [Example 26, N-(2-chlorobenzyl)-1'-[(4-fluorophenyl)sulfonyl]-4-hydroxy-2'-methyl-4-(trifluoromethyl)-1',2'-dihydrospiro[cyclohexane-1,3'-indole]-5'-carboxamide], the IC50 is 432 nM.

`O=C(NCc1ncccc1C(F)(F)F)c1ccc2c(c1)C1(CCC(O)(C(F)(F)F)CC1)C(C1CC1)N2S(=O)(=O)c1cccc(C(=O)N2CCC2)c1` (stereo not drawn) [Example 66, 1'-{[3-(azetidin-1-ylcarbonyl)phenyl]sulfonyl}-2'-cyclopropyl-4-hydroxy-4-(trifluoromethyl)-N-{[3-(trifluoromethyl)pyridin-2-yl]methyl}-1',2'-dihydrospiro[cyclohexane-1,3'-indole]-5'-carboxamide]: the IC50 came to 2180 nM.

Consider `O=C(O)c1cccc(S(=O)(=O)N2c3ccc(C(=O)NCc4ncc(C(F)(F)F)cc4F)cc3C3(CCC(O)(C(F)(F)F)CC3)C2C2CC2)c1` (stereo not drawn) [Example 49, 3-{[2'-cyclopropyl-5'-({[3-fluoro-5-(trifluoromethyl)pyridin-2-yl]methyl}carbamoyl)-4-hydroxy-4-(trifluoromethyl)spiro[cyclohexane-1,3'-indol]-1'(2'H)-yl]sulfonyl}benzoic acid], for which the IC50 amounted to 4300 nM.

Take `COc1cccc(S(=O)(=O)N2c3ccc(C(=O)NCc4ccccc4Cl)cc3C3(CCC(O)(C(F)(F)F)CC3)C2C2CC2)c1` (stereo not drawn) [Example 43, N-(2-chlorobenzyl)-2'-cyclopropyl-4-hydroxy-1'-[(3-methoxyphenyl)su Ifonyl]-4-(trifluoromethyl)-1',2'-dihydrospiro[cyclohexane-1,3'-indole]-5'-carboxamide]: the IC50 came to 621 nM.

Regarding `COC(=O)c1cccc(S(=O)(=O)N2c3ccc(C(=O)NCc4ncc(C(F)(F)F)cc4F)cc3C3(CCC(O)(C(F)(F)F)CC3)C2C2CC2)c1` (stereo not drawn) [Example 28, methyl 3-{[2'-cyclopropyl-5'-({[3-fluoro-5-(trifluoromethyl)pyridin-2-yl]methyl}carbamoyl)-4-hydroxy-4-(trifluoromethyl)spiro[cyclohexane-1,3'-indol]-1'(2'H)-yl]sulfonyl}benzoate], the IC50 was determined as 1780 nM.

On to `COC(=O)c1cccc(NC(=O)c2ccc3c(c2)C2(CCC(O)(C(F)(F)F)CC2)C(C2CC2)N3S(=O)(=O)c2ccc(F)cc2)c1` (racemic) [Example 30, methyl 3-[({2'-cyclopropyl-1'-[(4-fluorophenyl)sulfonyl]-4-hydroxy-4-(trifluoromethyl)-1',2'-dihydrospiro[cyclohexane-1,3'-indol]-5'-yl}carbonyl)amino] benzoate], for which the IC50 amounted to 227 nM.

Regarding `CC(C)=CCC1N(S(=O)(=O)c2ccc(F)cc2)c2ccc(C(=O)Nc3ccon3)cc2C12CCC(O)(C(F)(F)F)CC2` (stereo not drawn) [Example 17, 1'-[(4-fluorophenyl)sulfonyl]-4-hydroxy-2'-(3-methylbut-2-en-1-yl)-N-(1,2-oxazol-3-yl)-4-(trifluoromethyl)-1',2'-dihydrospiro[cyclohexane-1,3'-indole]-5'-carboxamide], the IC50 is 524 nM.

Regarding `COc1cccc(S(=O)(=O)N2c3ccc(C(=O)Nc4cccc(S(N)(=O)=O)c4)cc3C3(CCC(O)(C(F)(F)F)CC3)C2C2CC2)c1` (stereo not drawn) [Example 37, 2'-cyclopropyl-4-hydroxy-1'-[(3-methoxyphenyl)su Ifonyl]-N-(3-sulfamoylphenyl)-4-(trifluoromethyl)-1',2'-dihydrospiro[cyclohexane-1,3'-indole]-5'-carboxamide], the IC50 came to 2640 nM.

As for `O=C1CCC2(CC1)c1cc(C(=O)NCc3ccccc3Cl)ccc1N(S(=O)(=O)c1ccc(F)cc1)C2C1CC1` (single isomer, unassigned) [Example 3-1], the IC50 is 41.3 nM.

For the compound `COC(=O)c1cccc(S(=O)(=O)N2c3ccc(C(=O)NCc4ncccc4C(F)(F)F)cc3C3(CCC(O)(C(F)(F)F)CC3)C2C2CC2)c1` (stereo not drawn) [Example 29, methyl 3-{[2'-cyclopropyl-4-hydroxy-4-(trifluoromethyl)-5'-({[3-(trifluoromethyl)pyridin-2-yl]methyl}carbamoyl)spiro[cyclohexane-1,3'-indol]-1'(2'H)-yl]sulfonyl}benzoate], the half-inhibitory concentration (IC50) came to 612 nM.

On to `COc1cccc(S(=O)(=O)N2c3ccc(C(=O)Nc4cncc(C)c4)cc3C3(CCC(O)(C(F)(F)F)CC3)C2C2CC2)c1` (stereo not drawn) [Example 39, 2'-cyclopropyl-4-hydroxy-1'-[(3-methoxyphenyl)su Ifonyl]-N-(5-methylpyridin-3-yl)-4-(trifluoromethyl)-1',2'-dihydrospiro[cyclohexane-1,3'-indole]-5'-carboxamide], for which the IC50 came out at 1680 nM.
